# From ChEMBL document CHEMBL6074677, “Development of dual V1a/V2 antagonists containing triazolobenzazepine scaffold” (Eur J Med Chem, 2025)
# Legend:
# Vasopressin V1a receptor [1] = molecular target: T1, Vasopressin V1a receptor (Homo sapiens, UniProt P37288); experiment: Displacement of [3H]AVP from human vasopressin V1a receptor expressed in human 1321N1 cells assessed as inhibition constant; assay type: cell-based
# [2] = molecular target: Voltage-gated inwardly rectifying potassium channel KCNH2 (Homo sapiens, UniProt Q12809); experiment: Inhibition of human ERG expressed in CHO cells at -80 mV holding potential measured for 7 to 10 mins by automated patch clamp method; assay type: toxicity, cell-based
# Voltage-gated inwardly rectifying potassium channel KCNH2, sequence (Q12809 whole entry): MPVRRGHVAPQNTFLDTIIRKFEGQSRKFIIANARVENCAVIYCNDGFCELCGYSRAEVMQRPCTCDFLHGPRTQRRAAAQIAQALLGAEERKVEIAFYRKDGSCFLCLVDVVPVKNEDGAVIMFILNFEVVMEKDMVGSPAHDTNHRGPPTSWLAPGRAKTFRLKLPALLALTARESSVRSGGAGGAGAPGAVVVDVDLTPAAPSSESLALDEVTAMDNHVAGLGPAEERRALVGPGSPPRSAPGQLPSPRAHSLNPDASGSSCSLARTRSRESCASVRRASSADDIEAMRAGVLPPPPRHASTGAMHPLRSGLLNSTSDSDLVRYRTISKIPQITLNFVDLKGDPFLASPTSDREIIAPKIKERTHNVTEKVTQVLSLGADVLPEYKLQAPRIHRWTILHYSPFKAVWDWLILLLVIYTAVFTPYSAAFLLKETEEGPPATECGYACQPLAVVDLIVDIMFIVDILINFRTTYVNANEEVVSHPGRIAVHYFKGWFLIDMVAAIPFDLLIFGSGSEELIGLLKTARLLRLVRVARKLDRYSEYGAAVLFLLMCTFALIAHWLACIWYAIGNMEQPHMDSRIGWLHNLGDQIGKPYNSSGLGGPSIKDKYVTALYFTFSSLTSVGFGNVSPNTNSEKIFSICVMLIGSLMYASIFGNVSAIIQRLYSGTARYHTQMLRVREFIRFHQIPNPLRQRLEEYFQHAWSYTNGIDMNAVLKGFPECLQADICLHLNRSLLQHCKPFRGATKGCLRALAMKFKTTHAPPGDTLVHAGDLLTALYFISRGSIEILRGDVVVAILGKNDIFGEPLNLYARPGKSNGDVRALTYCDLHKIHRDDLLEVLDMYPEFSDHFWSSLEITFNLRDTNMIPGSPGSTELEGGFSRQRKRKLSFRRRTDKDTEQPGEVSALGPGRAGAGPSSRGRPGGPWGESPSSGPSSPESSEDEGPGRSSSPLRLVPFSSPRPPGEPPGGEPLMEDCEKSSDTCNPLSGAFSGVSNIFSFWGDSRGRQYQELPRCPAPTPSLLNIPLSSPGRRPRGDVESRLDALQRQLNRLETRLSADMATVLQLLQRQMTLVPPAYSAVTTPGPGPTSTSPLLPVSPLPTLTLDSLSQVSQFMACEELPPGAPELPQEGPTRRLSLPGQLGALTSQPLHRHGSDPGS
# [3] = Metabolic stability in mouse liver microsomes assessed as intrinsic clearance at 1 uM in presence of NADPH; assay type: ADME, Microsome; conditions: read-out: CLH
# [4] = Metabolic stability in rat liver microsomes assessed as intrinsic clearance at 1 uM in presence of NADPH; assay type: ADME, Microsome; conditions: read-out: CLH
# Vasopressin V2 receptor = Vasopressin V2 receptor (Homo sapiens, UniProt P30518); experiment: Displacement of [3H]AVP from human vasopressin V2 receptor expressed in human 1321N1 cells assessed as inhibition constant; assay type: cell-based
# Vasopressin V2 receptor, sequence (P30518 whole entry): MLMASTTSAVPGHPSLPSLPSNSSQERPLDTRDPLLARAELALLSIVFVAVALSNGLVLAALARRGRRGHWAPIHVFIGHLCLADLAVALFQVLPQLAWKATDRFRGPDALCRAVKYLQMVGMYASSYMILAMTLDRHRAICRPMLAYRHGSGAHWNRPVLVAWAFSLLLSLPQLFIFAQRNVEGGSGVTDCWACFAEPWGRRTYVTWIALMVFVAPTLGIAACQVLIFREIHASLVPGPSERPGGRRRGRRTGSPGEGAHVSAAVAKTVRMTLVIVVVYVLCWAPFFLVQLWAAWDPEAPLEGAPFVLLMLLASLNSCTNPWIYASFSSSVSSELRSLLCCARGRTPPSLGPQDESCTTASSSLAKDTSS
# [5] = Metabolic stability in human liver microsomes assessed as intrinsic clearance at 1 uM in presence of NADPH; assay type: ADME, Microsome; conditions: read-out: CLH
# [6] = Apparent permeability across apical to basolateral side in vinblastine treated human Caco-2 cells incubated for 15 to 60 mins by HPLC analysis; assay type: ADME, cell-based; conditions: time 15-60 min
# [7] = molecular target: Vasopressin V1a receptor (Mus musculus) (UniProt Q62463); experiment: In vivo antagonist activity at vasopressin V1a receptor in male NMRI mouse assessed as inhibition of oxytocin-induced scratching behavior at 1 mg/kg, po pretreated with compound for 60 mins followed by oxytocin administration and measured after 1 hrs relative to control; assay type: functional, organism-based; conditions: time 120.0 min
# Vasopressin V1a receptor (Mus musculus), sequence (Q62463 whole entry, looked up): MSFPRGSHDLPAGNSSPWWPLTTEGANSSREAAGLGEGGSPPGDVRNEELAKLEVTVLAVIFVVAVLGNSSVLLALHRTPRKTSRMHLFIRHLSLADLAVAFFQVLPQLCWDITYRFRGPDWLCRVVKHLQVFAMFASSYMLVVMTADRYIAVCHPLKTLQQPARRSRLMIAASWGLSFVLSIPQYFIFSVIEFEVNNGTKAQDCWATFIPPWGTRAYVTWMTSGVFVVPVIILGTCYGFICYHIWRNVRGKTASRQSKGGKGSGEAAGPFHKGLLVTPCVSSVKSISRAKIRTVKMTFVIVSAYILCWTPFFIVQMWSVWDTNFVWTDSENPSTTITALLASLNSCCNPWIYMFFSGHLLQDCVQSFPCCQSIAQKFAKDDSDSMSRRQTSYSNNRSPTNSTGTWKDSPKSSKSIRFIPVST
# [8] = molecular target: Vasopressin V1a receptor (Mus musculus) (UniProt Q62463); experiment: In vivo antagonist activity at vasopressin V1a receptor in male NMRI mouse assessed as inhibition of oxytocin-induced scratching behavior at 0.3 mg/kg, po pretreated with compound for 60 mins followed by oxytocin administration and measured after 1 hrs relative to control; assay type: functional, organism-based; conditions: time 120.0 min
# [9] = molecular target: Vasopressin V1a receptor (Mus musculus) (UniProt Q62463); experiment: In vivo antagonist activity at vasopressin V1a receptor in male NMRI mouse assessed as inhibition of oxytocin-induced scratching behavior at 3 mg/kg, po pretreated with compound for 60 mins followed by oxytocin administration and measured after 1 hrs relative to control; assay type: functional, organism-based; conditions: time 120.0 min
# Vasopressin V1a receptor [10] = molecular target: T1, Vasopressin V1a receptor; experiment: Displacement of [3H]AVP from human vasopressin V1a receptor expressed in human 1321N1 cells; assay type: cell-based
# [11] = molecular target: Vasopressin V1a receptor (Mus musculus) (UniProt Q62463); experiment: In vivo antagonist activity at vasopressin V1a receptor in male NMRI mouse assessed as inhibition of oxytocin-induced scratching behavior at 0.1 mg/kg, po pretreated with compound for 60 mins followed by oxytocin administration and measured after 1 hrs relative to control; assay type: functional, organism-based; conditions: time 120.0 min
# Vasopressin V1a receptor [12] = molecular target: Vasopressin V1a receptor (Mus musculus, UniProt Q62463); experiment: Displacement of [3H]AVP from mouse vasopressin V1a receptor expressed in human 1321N1 cells assessed as inhibition constant; assay type: cell-based
# Vasopressin V1a receptor (Mus musculus, UniProt Q62463), sequence (Q62463 whole entry): as the sequence (Q62463 whole entry, looked up) above
# T1 sequence (P37288 whole entry): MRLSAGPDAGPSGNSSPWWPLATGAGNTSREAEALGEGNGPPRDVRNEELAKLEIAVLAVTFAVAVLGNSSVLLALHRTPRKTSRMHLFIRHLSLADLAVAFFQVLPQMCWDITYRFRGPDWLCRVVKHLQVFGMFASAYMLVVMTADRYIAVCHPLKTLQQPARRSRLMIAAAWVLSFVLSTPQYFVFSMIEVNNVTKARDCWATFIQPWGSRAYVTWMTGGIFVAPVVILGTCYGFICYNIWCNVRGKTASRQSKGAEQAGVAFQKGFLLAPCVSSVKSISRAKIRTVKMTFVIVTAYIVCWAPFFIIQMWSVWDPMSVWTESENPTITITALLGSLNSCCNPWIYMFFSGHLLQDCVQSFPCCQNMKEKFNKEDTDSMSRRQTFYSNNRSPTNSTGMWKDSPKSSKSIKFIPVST
SMILES,Ki (Vasopressin V1a receptor [1]) [nM],microsomal CLint at 1 µM [3] [µL/min/mg],microsomal CLint at 1 µM [4] [µL/min/mg],Ki (Vasopressin V2 receptor) [nM],microsomal CLint at 1 µM [5] [µL/min/mg],Papp A→B [6] [×10⁻⁶ cm/s],inhibition [7] [%],inhibition [8] [%],inhibition [9] [%],IC50 (Vasopressin V1a receptor [10]) [nM],inhibition [11] [%],Ki (Vasopressin V1a receptor [12]) [nM],IC50 [2] [nM]
Clc1ccc2c(c1)CC1(Cc3nnc(N4CCC(Oc5ccccn5)CC4)n3-2)OCCO1,–,28.4,33.3,20,10.9,40.4,–,–,–,–,–,–,8200
Clc1ccc2c(c1)CC1(Cc3nnc(C4CCN(c5cccc6c5COC6)CC4)n3-2)OCCO1,0.21,–,–,26,–,–,–,–,–,–,–,–,–
NC(=O)C1Cc2cc(Cl)ccc2-n2c(nnc2N2CCC(Oc3ccccn3)CC2)C1 (stereo not given),1.4,6.2,7.6,3620,0.5,–,–,–,–,–,–,–,–
NC(=O)C1Cc2cc(Cl)ccc2-n2c(nnc2N2CCN(c3cccc(Cl)c3)CC2)C1 (stereo not given),7.7,9.2,7,259,3.7,–,–,–,–,–,–,–,–
O=C1c2ccccc2CCN1C1CCN(c2nnc3n2-c2ccc(Cl)cc2CC2(C3)OCCO2)CC1,0.25,–,–,13,–,–,–,–,–,–,–,–,–
NC(=O)C1Cc2cc(Cl)ccc2-n2c(nnc2N2CCC(N3CCCCC3)CC2)C1 (stereo not given),98,0.2,0.2,–,0.2,–,–,–,–,–,–,–,–
Cc1nc2c([nH]1)-c1ccccc1N(C(=O)c1ccc(NC(=O)c3ccccc3-c3ccccc3)cc1)CC2 [CONIVAPTAN],–,–,–,–,–,2.9,–,–,–,–,–,–,> 5000
Clc1ccc2c(c1)CC1(Cc3nnc(N4CCC(N5CCCCC5)CC4)n3-2)OCCO1,2.04,1.15,1.15,998,0.2,2.4,–,–,–,–,–,–,–
Clc1ccc2c(c1)CC1(Cc3nnc([C@H]4CC[C@H](Oc5ccccn5)CC4)n3-2)OCCO1,–,25,28,–,13,59.3,86,42,80,–,–,–,9100
NC(=O)C1Cc2cc(Cl)ccc2-n2c(nnc2N2CCC3(CC2)OCc2ccccc23)C1 (stereo not given),2.1,–,–,327,–,–,–,–,–,–,–,–,–
Clc1ccc2c(c1)CC1(Cc3nnc(N4CCN(c5nccc6ccoc56)CC4)n3-2)OCCO1,0.28,44.6,110,21,18,–,–,–,–,–,–,–,–
Cc1ccccc1C(=O)Nc1ccc(C(=O)N2CCCC(O)c3cc(Cl)ccc32)c(C)c1 (stereo not given) [TOLVAPTAN],–,32,168,–,12,46.7,–,–,–,–,–,–,–
COC1(c2ccccc2)CCN(c2nnc3n2-c2ccc(Cl)cc2CC2(C3)OCCO2)CC1,0.17,51.7,62.2,11,6.9,34,–,–,–,–,–,–,11000
Cc1cccc(N2CCN(c3nnc4n3-c3ccc(Cl)cc3CC(C(N)=O)C4)CC2)c1C (stereo not given),0.65,9.1,14.5,13,5.1,–,–,–,–,–,–,–,–
CC1(C)Cc2cccc(N3CCN(c4nnc5n4-c4ccc(Cl)cc4CC4(C5)OCCO4)CC3)c2O1,0.82,99.5,113,24,107,–,–,–,–,–,–,–,–
COC1(c2ccccc2)CCN(c2nnc3n2-c2ccc(Cl)cc2CC(C(N)=O)C3)CC1 (stereo not given),1.3,13.9,7.1,1610,3,–,–,–,–,–,–,–,–
Clc1ccc2c(c1)CC1(Cc3nnc(C4CCN(c5cccc6c5CCO6)CC4)n3-2)OCCO1,0.3,–,–,26,–,–,–,–,–,–,–,–,–

# More lines, main results first:
Ki (Vasopressin V1a receptor [1]) [nM],microsomal CLint at 1 µM [3] [µL/min/mg],microsomal CLint at 1 µM [4] [µL/min/mg],Ki (Vasopressin V2 receptor) [nM],microsomal CLint at 1 µM [5] [µL/min/mg],Papp A→B [6] [×10⁻⁶ cm/s],inhibition [7] [%],inhibition [8] [%],inhibition [9] [%],IC50 (Vasopressin V1a receptor [10]) [nM],inhibition [11] [%],Ki (Vasopressin V1a receptor [12]) [nM],SMILES,IC50 [2] [nM]
0.5,30.5,29.4,2.8,17,–,–,–,–,–,–,–,Clc1ccc2c(c1)CC1(Cc3nnc(N4CCN(c5cccc6c5COC6)CC4)n3-2)OCCO1,7900
0.4,–,–,2,–,–,–,–,–,–,–,–,COc1ccccc1N1CCN(c2nnc3n2-c2ccc(Cl)cc2CC2(C3)OCCO2)CC1,–
0.25,25.1,31.7,0.8,8.8,31,–,–,–,–,–,–,Clc1ccc2c(c1)CC1(Cc3nnc(N4CCN(c5cccc6c5OCO6)CC4)n3-2)OCCO1,11000
0.41,70.7,48.2,1.1,78.3,–,–,–,–,–,–,–,Clc1ccc2c(c1)CC1(CCOCC1)Cc1nnc(N3CCN(c4cccc5c4OCC5)CC3)n1-2,–
0.26,58.5,51,1.2,10.6,–,–,–,–,–,–,–,Clc1ccc2c(c1)CC1(Cc3nnc(N4CCN(c5ncccc5Cl)CC4)n3-2)OCCO1,–
0.14,83.3,141,6.5,24.3,–,–,–,–,–,–,–,Clc1ccc2c(c1)CC1(Cc3nnc(N4CCN(c5nccc6ccsc56)CC4)n3-2)OCCO1,–
1.4,14.3,26.2,11,13.5,–,–,–,–,–,–,–,OC1Cc2cc(Cl)ccc2-n2c(nnc2N2CCN(c3cccc4c3OCC4)CC2)C1 (stereo not given),–
0.2,–,–,4,–,–,–,–,–,–,–,–,Clc1ccc2c(c1)CC1(Cc3nnc(C4CCN(c5cccc6c5OCC6)CC4)n3-2)OCCO1,–
0.35,–,–,9,–,–,–,–,–,–,–,–,Cc1ccccc1C(=O)NC1CCN(c2nnc3n2-c2ccc(Cl)cc2CC2(C3)OCCO2)CC1,–
0.13,27.1,36.9,0.53,15.9,30,91,85,86,2.2,81,0.5,Clc1ccc2c(c1)CC1(Cc3nnc(N4CCN(c5cccc6c5OCC6)CC4)n3-2)OCCO1,> 30000
0.5,23.3,28,0.7,5.8,–,83,69,104,5.7,–,0.4,Cc1cccc(N2CCN(c3nnc4n3-c3ccc(Cl)cc3CC3(C4)OCCO3)CC2)c1C,10000
0.38,21.8,28.2,2.2,11.5,30,–,–,–,–,–,–,Clc1ccc2c(c1)CC1(Cc3nnc(N4CCN(c5cccc6c5CCO6)CC4)n3-2)OCCO1,10000
1.4,–,–,5.1,–,–,–,–,–,–,–,–,Clc1ccc2c(c1)CC1(CCCO1)Cc1nnc(N3CCN(c4cccc5c4OCC5)CC3)n1-2 (stereo not given),–
–,21.7,25.4,4.7,9.1,39.9,–,–,–,–,–,–,Clc1ccc2c(c1)CC1(Cc3nnc(N4CCN(c5ccccn5)CC4)n3-2)OCCO1,–
0.2,–,–,0.7,–,–,–,–,–,–,–,–,Clc1ccc2c(c1)CC1(Cc3nnc(N4CCC(c5cccc6c5OCC6)CC4)n3-2)OCCO1,–
0.2,–,–,0.9,–,–,–,–,–,–,–,–,Clc1ccc2c(c1)CC1(Cc3nnc(N4CCC(c5cccc6c5OCO6)CC4)n3-2)OCCO1,–
–,194,166,1.6,12,–,–,–,–,–,–,–,Clc1ccc2c(c1)CC1(Cc3nnc(N4CCC5(CC4)OCc4ccccc45)n3-2)OCCO1,–
